Data: article PMC6222509, “Dibasic Derivatives of Phenylcarbamic Acid against Mycobacterial Strains: Old Drugs and New Tricks?” (Molecules : A Journal of Synthetic Chemistry and Natural …, 2018)
Values after ≈ are worked out from the molar mass of the structure shown. Where two headings read alike, the source gives them in different places.

What was measured:
[1] = test system: M. kansasii DSM 44162 (MK DSM); test: in vitro antimycobacterial MIC, broth dilution micromethod in Middlebrook 7H9; format: cell-based; details: Mycobacterium kansasii, DSM 44162 / DSM 7, 168 h
[2] = lipophilicity by isocratic RP-HPLC (log k, k, log kw, S); format: physicochemical; details: for log kw: extrapolated to 100% water from log k versus ϕM; for S (slope): slope of log k versus ϕM regression
Procedure, shortened: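 Isocratic RP-HPLC on a C18 column at 40 °C, MeOH/water 80:20 to pure MeOH, 1.0 mL/min, UV 236–238 nm. k = (tr − td)/td, with KI for dead time and means of three runs; log kw is the intercept and S the slope of log k versus MeOH volume fraction.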

[3] = test system: M. smegmatis ATCC 700084 (MS); test: in vitro antimycobacterial MIC, broth dilution micromethod in Middlebrook 7H9; format: cell-based, Mycobacterium smegmatis; details: Mycolicibacterium smegmatis, ATCC700084, 72 h
[4] = test system: M. avium CNCTC My 330/80 (identical with ATCC 25291; MA 330/80); test: in vitro antimycobacterial MIC, dilution micromethod in Šula's semisynthetic medium; format: cell-based, Mycobacterium avium; details: Mycobacterium avium
[5] = surface tension, drop count method, Traube stalagmometer; format: physicochemical; details: aqueous solution c = 2.0 × 10^−3 M, 21 °C; water γ = 0.07259 N/m
Procedure, shortened: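 Drop counts of aqueous compound solutions (c = 2.0 × 10^−3 M) compared with reference solution between stalagmometer marks, drops formed at constant 21 °C. γ reported in N/m as average of six replicates.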

[6] = test system: M. marinum CAMP 5644 (MM); test: in vitro antimycobacterial MIC, broth dilution micromethod in Middlebrook 7H9; format: cell-based, Mycobacterium marinum; details: Mycobacterium marinum, 504 h
[7] = test system: M. kansasii CNCTC My 235/80 (identical with ATCC 12478; MK 235/80); test: in vitro antimycobacterial MIC, dilution micromethod in Šula's semisynthetic medium; format: cell-based, Mycobacterium kansasii; details: Mycobacterium kansasii
[8] = test system: rabbit cornea; set-up: method as in PMID 8402965; details: 0.01 M cocaine as standard; cited from earlier work
[9] = test system: Mycobacterium tuberculosis CNCTC My 331/88 (identical with H37Rv and ATCC 2794; MTv H37Rv); test: in vitro antimycobacterial MIC, dilution micromethod in Šula's semisynthetic medium; format: cell-based; details: Mycobacterium tuberculosis
[10] = test system: white mice; details: subcutaneous application; cited from earlier work
[11] = mobile phase MeOH/water 80:20 (v/v)
[12] = mobile phase MeOH/water 85:15 (v/v)
[13] = mobile phase MeOH/water 90:10 (v/v)
[14] = mobile phase MeOH/water 95:5 (v/v)
[15] = 336 h, 14-day cultivation, read-out: MIC MTv H37Rv 14-d
[16] = 504 h, 21-day cultivation, read-out: MIC MTv H37Rv 21-d

For `CCCCCOc1cccc(NC(=O)OC(CN(CCC)CCC)CN2CCCC2)c1.Cl.Cl` (stereo not drawn) [1f, 1-[2-[({[3-(pentyloxy)phenyl]amino}carbonyl)oxy]-3-(dipropylammonio)propyl]-pyrrolidinium dichloride], the MIC ([1]; read-out: MIC MK DSM 7-d, 7-day cultivation, 37 °C) was 7.9 µM, the log kw [2] was 4.6722 and the “k (retention factor)” value [2, 11] was 4.5436. For the same compound, the log k [2, 11] was 0.6574, the “k (retention factor)” value [2, 12] was 3.0981 and the log k [2, 12] was 0.4911. The “k (retention factor)” value [2, 13] was 1.7972, the log k [2, 13] was 0.2546 and the “k (retention factor)” value [2, 14] was 0.8052. The log k [2, 14] was −0.0941, the “k (retention factor)” value ([2]; mobile phase pure MeOH) was 0.5113 and the log k ([2]; mobile phase pure MeOH) was −0.2913. For the same compound, the “S (slope)” value [2] was 4.9652, the MIC ([3]; read-out: MIC MS 3-d, 3-day cultivation, 37 °C) was 15.8 µM and the MIC ([4]; ATCC25291, 336 h, read-out: MIC MA 330/80 14-d) was 32 µM. The MIC ([4]; ATCC25291, 504 h, read-out: MIC MA 330/80 21-d) was 32 µM, the “surface tension γ (relative surface activity)” value [5] was 0.06285 N/m and the MIC ([6]; read-out: MIC MM 21-d, 21-day cultivation, 28 °C) was less than 3.9 µM. For the same compound, the MIC ([7]; ATCC12478, 168 h, read-out: MIC MK 235/80 7-d) was 16 µM, the MIC ([7]; ATCC12478, 336 h, read-out: MIC MK 235/80 14-d) was 16 µM and the MIC ([7]; ATCC12478, 504 h, read-out: MIC MK 235/80 21-d) was 32 µM. For the same compound, the “Us, index of relative surface local anesthetic efficiency” value [8] was 130, the MIC [9, 15] was 16 µM and the MIC [9, 16] was 16 µM.
With `CCCCCCOc1ccccc1NC(=O)OC(CN(CCC)CCC)CN1CCCC1` (stereo not drawn) [1c] the MIC ([1]; 7-day cultivation, 37 °C, read-out: MIC MK DSM 7-d) was 12.7 µM (≈ 5.69 µg/mL), the log kw [2] was 4.6049 and the “k (retention factor)” value [2, 11] was 10.4858. For the same compound, the log k [2, 11] was 1.0206, the “k (retention factor)” value [2, 12] was 6.5494 and the log k [2, 12] was 0.8162. The “k (retention factor)” value [2, 13] was 4.0300, the log k [2, 13] was 0.6053 and the “k (retention factor)” value [2, 14] was 2.3351. The log k [2, 14] was 0.3683, the “k (retention factor)” value ([2]; mobile phase pure MeOH) was 1.3449 and the log k ([2]; mobile phase pure MeOH) was 0.1287. For the same compound, the “S (slope)” value [2] was 4.4634, the MIC ([3]; 3-day cultivation, 37 °C, read-out: MIC MS 3-d) was 51 µM (≈ 22.8 µg/mL) and the MIC ([4]; ATCC25291, 336 h, 14-day cultivation, read-out: MIC MA 330/80 14-d) was 32 µM (≈ 14.3 µg/mL). The MIC ([4]; ATCC25291, 504 h, 21-day cultivation, read-out: MIC MA 330/80 21-d) was 62.5 µM (≈ 28 µg/mL), the “surface tension γ (relative surface activity)” value [5] was 0.06222 N/m and the MIC ([6]; 21-day cultivation, 28 °C, read-out: MIC MM 21-d) was 25.5 µM (≈ 11.4 µg/mL). The MIC ([7]; ATCC12478, 168 h, 7-day cultivation, read-out: MIC MK 235/80 7-d) was 32 µM (≈ 14.3 µg/mL), the MIC ([7]; ATCC12478, 336 h, 14-day cultivation, read-out: MIC MK 235/80 14-d) was 32 µM (≈ 14.3 µg/mL) and the MIC ([7]; ATCC12478, 504 h, 21-day cultivation, read-out: MIC MK 235/80 21-d) was 32 µM (≈ 14.3 µg/mL). The LD50 [10] was 600 mg/kg, the MIC [9, 15] was 16 µM (≈ 7.16 µg/mL) and the MIC [9, 16] was 16 µM (≈ 7.16 µg/mL).
